{
  "source": "patent US20240226049A1",
  "about": "“METHODS OF TREATMENT USING BEMPEDOIC ACID” (Esperion Therapeutics, Inc., priority 2023, published 2024)",
  "key": {"[1]": {"test_system": "primary prevention patients unable to tolerate recommended doses of statins", "test": "CLEAR OUTCOMES primary prevention subgroup (Example 2): time-to-event efficacy end points", "assay_type": "in vivo, human", "description": "(§1) The rationale, design and methods of the CLEAR Outcomes trial is described in Example 1. The trial was conducted at 1250 sites in 32 countries and designed by the Cleveland Clinic Coordinating Center for Clinical Research (C5Research) and an academic Executive Committee in collaboration with the sponsor. The protocol was approved by ethics committees at participating sites and all patients provided written informed consent before enrollment. A contract research organization collected the data which were transferred to C5Research at completion of the trial whose statisticians conducted the analyses described herein. An independent Data Monitoring Committee monitored the trial.\n(§2) Primary prevention patients 18 to 85 years of age with an LDL cholesterol ≥100 mg/dL with clinical features placing them at high risk for a first cardiovascular event were eligible. Criteria for high cardiovascular risk included risk scores, such as the Reynolds Risk Score and the SCORE project (Ridker et al., Development and validation of improved algorithms for the assessment of global cardiovascular risk in women: the Reynolds Risk Score, JAMA. 2007 Feb. 14; 297(6):611-9; Ridker et al., C-reactive protein and parental history improve global cardiovascular risk prediction. The Reynolds Risk Score for men, Circulation. 2008; 118: 2243-2251; European Guidelines on CVD Prevention in Clinical Practice. 2016. Eur J Prev Cardiol. 2016 July; 23(11):NP1-NP96), a coronary artery calcium score >400 Agatston units (AU) or presence of either type 1 or 2 diabetes in women aged >65 years or men older than 60 years.\n(§3) Investigators were responsible for assessing the patient for statin intolerance. Patients had to report statin intolerance due to an adverse effect that started or increased during statin therapy and resolved or improved after statin therapy was discontinued. Entry criteria required inability to tolerate 2 or more statins at any dose or 1 statin and unwillingness to attempt a second statin or advised by a physician not to attempt taking a second statin. Both the patient and site investigator were required to provide written confirmation that the patient was statin intolerant and aware of the benefits of statins to reduce the risk of cardiovascular events, including death, and acknowledge that many patients who are unable to tolerate a statin can tolerate a different statin or dose. Patients could be enrolled if they tolerated a very low average daily statin dose defined as rosuvastatin <5 mg, atorvastatin <10 mg, simvastatin <10 mg, lovastatin <20 mg, pravastatin <40 mg, fluvastatin <40 mg, or pitavastatin <2 mg. Other background lipid-lowering therapies were permitted, including ezetimibe, niacin, bile acid resins, fibrates, and/or proprotein convertase subtilisin kexin type 9 (PCSK9) inhibitors.\n(§4) Eligible patients entered a 4-week run-in period during which patients were treated with single-blind placebo. If patients were intolerant to placebo treatment or if adherence was <80% by tablet count, they were not eligible for randomization. Patients who successfully completed the run-in period were randomly assigned in a 1:1 ratio to receive a 180 mg oral dose of bempedoic acid or matching placebo, administered daily. During the trial, LDL cholesterol and hsCRP results were masked. Beginning 6 months after randomization, the central laboratory notified the investigator, who remained blinded to treatment assignment, if the patient's LDL cholesterol level was ≥25% higher than baseline. Repeat testing was performed after the patient was counseled about diet and encouraged to take all medications as prescribed. The patient returned for a repeat fasting blood lipid profile to confirm whether the LDL cholesterol value exceeded the threshold criteria. If confirmed, the patient's treatment regimen for LDL cholesterol lowering could be adjusted, per standard of care and local practice. […]"}, "[2]": {"test_system": "primary prevention patients unable to tolerate recommended doses of statins", "test": "CLEAR OUTCOMES primary prevention subgroup (Example 2): effects on LDL cholesterol and hsCRP", "assay_type": "in vivo, human", "description": "as §1, §2, §3, §4"}, "[3]": {"settings": "primary prevention patients, 180 mg oral daily, N = 2100"}, "[4]": {"settings": "vs placebo, primary prevention, adjusted for baseline characteristics"}, "[5]": {"settings": "vs placebo, primary prevention, adjusted for baseline characteristics, listed as bempedoic acid"}, "[6]": {"settings": "vs placebo, primary prevention, unadjusted"}, "[7]": {"settings": "primary prevention subgroup, vs placebo"}, "[8]": {"settings": "primary prevention, after 12 months treatment"}, "[9]": {"settings": "primary prevention, baseline mean 142.2 mg/dL"}},
  "note": "Where “and” joins values, the source holds several entries; their conditions need not be identical. Identical values can stand only once.",
  "data": [
    {"smiles": "CC(C)(CCCCCC(O)CCCCCC(C)(C)C(=O)O)C(=O)O", "note": "[Bempedoic Acid, Bempedoic acid]", "values": [
      {"measurement": "3-component MACE, % of patients", "setting": "[1]; [3]", "result": 4.0, "unit": "%"},
      {"measurement": "3-component MACE, number of patients", "setting": "[1]; [3]", "result": "83 number of patients"},
      {"measurement": "5-component MACE, % of patients", "setting": "[1]; [3]", "result": 5.3, "unit": "%"},
      {"measurement": "5-component MACE, number of patients", "setting": "[1]; [3]", "result": "112 number of patients"},
      {"measurement": "All-cause mortality, % of patients", "setting": "[1]; [3]", "result": 3.6, "unit": "%"},
      {"measurement": "All-cause mortality, number of patients", "setting": "[1]; [3]", "result": "75 number of patients"},
      {"measurement": "Cardiovascular death, % of patients", "setting": "[1]; [3]", "result": 1.8, "unit": "%"},
      {"measurement": "Cardiovascular death, number of patients", "setting": "[1]; [3]", "result": "37 number of patients"},
      {"measurement": "Coronary revascularization, % of patients", "setting": "[1]; [3]", "result": 2.4, "unit": "%"},
      {"measurement": "Coronary revascularization, number of patients", "setting": "[1]; [3]", "result": "50 number of patients"},
      {"measurement": "Fatal and non-fatal MI, % of patients", "setting": "[1]; [3]", "result": 1.4, "unit": "%"},
      {"measurement": "Fatal and non-fatal MI, number of patients", "setting": "[1]; [3]", "result": "29 number of patients"},
      {"measurement": "Fatal and non-fatal stroke, % of patients", "setting": "[1]; [3]", "result": 1.3, "unit": "%"},
      {"measurement": "Fatal and non-fatal stroke, number of patients", "setting": "[1]; [3]", "result": "27 number of patients"},
      {"measurement": "Hospitalization for unstable angina, % of patients", "setting": "[1]; [3]", "result": 0.5, "unit": "%"},
      {"measurement": "Hospitalization for unstable angina, number of patients", "setting": "[1]; [3]", "result": "10 number of patients"},
      {"measurement": "Primary efficacy endpoint (MACE-4), % of patients", "setting": "[1]; [3]", "result": 5.3, "unit": "%"},
      {"measurement": "Primary efficacy endpoint (MACE-4), number of patients", "setting": "[1]; [3]", "result": "111 number of patients"},
      {"measurement": "number need to treat (NNT) to prevent one primary composite outcome", "setting": "[1]; primary prevention patients, 4-component MACE", "result": 43, "unit": "patients"},
      {"measurement": "effect on stroke and coronary revascularization", "setting": "[1]; primary prevention patients, vs placebo", "result": "not significantly reduced"},
      {"measurement": "3-component MACE, Hazard Ratio (95% CI), adjusted", "setting": "[1]; [4]", "result": "0.64 (0.48-0.84)"},
      {"measurement": "5-component MACE, Hazard Ratio (95% CI), adjusted", "setting": "[1]; [4]", "result": "0.69 (0.54-0.88)"},
      {"measurement": "All-cause mortality, Hazard Ratio (95% CI), adjusted", "setting": "[1]; [4]", "result": "0.73 (0.54-0.98)"},
      {"measurement": "Cardiovascular death, Hazard Ratio (95% CI), adjusted", "setting": "[1]; [4]", "result": "0.61 (0.41-0.92)"},
      {"measurement": "Coronary revascularization, Hazard Ratio (95% CI), adjusted", "setting": "[1]; [4]", "result": "0.71 and 0.71 (0.49-1.03)"},
      {"measurement": "Fatal and non-fatal MI, Hazard Ratio (95% CI), adjusted", "setting": "[1]; [4]", "result": "0.61 (0.39-0.98)"},
      {"measurement": "Fatal and non-fatal stroke, Hazard Ratio (95% CI), adjusted", "setting": "[1]; [4]", "result": "0.76 (0.46-1.26)"},
      {"measurement": "Hospitalization for unstable angina, Hazard Ratio (95% CI), adjusted", "setting": "[1]; [4]", "result": "0.58 (0.26-1.27)"},
      {"measurement": "Primary efficacy endpoint (MACE-4), Hazard Ratio (95% CI), adjusted", "setting": "[1]; [4]", "result": "0.70 (0.55-0.89)"},
      {"measurement": "3-component MACE, Hazard Ratio (95% CI), adjusted", "setting": "[1]; [5]", "result": 0.64},
      {"measurement": "5-component MACE, Hazard Ratio (95% CI), adjusted", "setting": "[1]; [5]", "result": 0.69},
      {"measurement": "All-cause mortality, Hazard Ratio (95% CI), adjusted", "setting": "[1]; [5]", "result": 0.73},
      {"measurement": "Cardiovascular death, Hazard Ratio (95% CI), adjusted", "setting": "[1]; [5]", "result": 0.61},
      {"measurement": "Fatal and non-fatal MI, Hazard Ratio (95% CI), adjusted", "setting": "[1]; [5]", "result": 0.61},
      {"measurement": "Fatal and non-fatal stroke, Hazard Ratio (95% CI), adjusted", "setting": "[1]; [5]", "result": 0.76},
      {"measurement": "Hospitalization for unstable angina, Hazard Ratio (95% CI), adjusted", "setting": "[1]; [5]", "result": 0.58},
      {"measurement": "Primary efficacy endpoint (MACE-4), Hazard Ratio (95% CI), adjusted", "setting": "[1]; [5]", "result": 0.70},
      {"measurement": "3-component MACE, Hazard Ratio (95% CI), unadjusted", "setting": "[1]; [6]", "result": "0.61 (0.46-0.80)"},
      {"measurement": "5-component MACE, Hazard Ratio (95% CI), unadjusted", "setting": "[1]; [6]", "result": "0.67 (0.53-0.86)"},
      {"measurement": "All-cause mortality, Hazard Ratio (95% CI), unadjusted", "setting": "[1]; [6]", "result": "0.69 (0.51-0.92)"},
      {"measurement": "Coronary revascularization, Hazard Ratio (95% CI), unadjusted", "setting": "[1]; [6]", "result": "0.73 (0.50-1.05)"},
      {"measurement": "Death from cardiovascular causes, Hazard Ratio (95% CI), unadjusted", "setting": "[1]; [6]", "result": "0.57 (0.38-0.85)"},
      {"measurement": "Fatal and non-fatal MI, Hazard Ratio (95% CI), unadjusted", "setting": "[1]; [6]", "result": "0.61 (0.38-0.97)"},
      {"measurement": "Fatal and non-fatal stroke, Hazard Ratio (95% CI), unadjusted", "setting": "[1]; [6]", "result": "0.72 (0.44-1.19)"},
      {"measurement": "Hospitalization for unstable angina, Hazard Ratio (95% CI), unadjusted", "setting": "[1]; [6]", "result": "0.58 (0.27-1.27)"},
      {"measurement": "Primary efficacy endpoint (MACE-4), Hazard Ratio (95% CI), unadjusted", "setting": "[1]; [6]", "result": "0.68 (0.53-0.87)"},
      {"measurement": "time-averaged difference in LDL cholesterol over the course of the trial", "setting": "[2]; [7]", "result": 23.2, "unit": "mg/dL"},
      {"measurement": "time-averaged difference in LDL cholesterol over the duration of the trial, percent", "setting": "[2]; [7]", "result": 16.3, "unit": "%"},
      {"measurement": "difference in hsCRP reduction compared with placebo", "setting": "[2]; [8]", "result": 0.56, "unit": "mg/L"},
      {"measurement": "difference in hsCRP reduction compared with placebo, percent", "setting": "[2]; [8]", "result": 21.5, "unit": "%"},
      {"measurement": "LS mean difference in LDL cholesterol compared with placebo after 6 months, percent", "setting": "[2]; [9]", "result": 21.3, "unit": "%"},
      {"measurement": "LS mean reduction in LDL cholesterol compared with placebo after 6 months of treatment", "setting": "[2]; [9]", "result": 30.2, "unit": "mg/dL"},
      {"measurement": "reduction of hsCRP after 12 months treatment", "setting": "[2]; primary prevention, median baseline 2.4 mg/L, bempedoic acid group", "result": 0.34, "unit": "mg/L"}
    ]}
  ]
}
